# According to PubChem BioAssay (NCI):
#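 GI50 = concentration required for 50% inhibition of growth. Definition used: TGI = concentration required for complete inhibition of growth.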
# What was measured:
# Experiment in all cases: NCI anticancer screen, dose series, 384-well format
# [1] = tested on: COLO 205 colon
# [2] = tested on: SF-295 CNS
# [3] = tested on: UACC-257 melanoma
# [4] = tested on: CAKI-1 renal
# [5] = tested on: SK-MEL-5 melanoma
# [6] = tested on: K-562 leukemia
# [7] = tested on: BT-549 breast
# [8] = tested on: T-47D breast
# [9] = tested on: SNB-19 CNS
# [10] = tested on: HCC-2998 colon
# [11] = tested on: RXF 393 renal
# [12] = tested on: MOLT-4 leukemia
# [13] = tested on: DU-145 prostate
# [14] = tested on: SW-620 colon
# [15] = tested on: MALME-3M melanoma
# [16] = tested on: SK-OV-3 ovarian
# [17] = tested on: OVCAR-8 ovarian
# [18] = tested on: IGROV1 ovarian
# [19] = tested on: UACC-62 melanoma
# [20] = tested on: UO-31 renal
# [21] = tested on: SK-MEL-28 melanoma
# [22] = tested on: HT29 colon
# [23] = tested on: A498 renal
# [24] = tested on: NCI-H23 lung
# [25] = tested on: MDA-MB-468 breast
# [26] = tested on: OVCAR-4 ovarian
# [27] = tested on: SF-268 CNS
# [28] = tested on: MCF7 breast
# [29] = tested on: TK-10 renal
# [30] = tested on: NCI-H522 lung
# [31] = tested on: OVCAR-5 ovarian
# [32] = tested on: KM12 colon
# [33] = tested on: HCT-15 colon
# [34] = tested on: NCI-H322M lung
# [35] = tested on: ACHN renal
# [36] = tested on: HOP-92 NSCLC
# [37] = tested on: M14 melanoma
# [38] = tested on: MDA-MB-435 melanoma
# [39] = tested on: U251 glioblastoma
# [40] = tested on: SN12C renal
# [41] = tested on: SK-MEL-2 melanoma
# [42] = tested on: RPMI-8226 leukemia
# [43] = tested on: PC-3 prostate
# [44] = tested on: HOP-62 NSCLC
# [45] = tested on: NCI-H226 lung
# [46] = tested on: SR leukemia
# [47] = tested on: LOX IMVI melanoma
# [48] = tested on: NCI-H460 NSCLC
# [49] = tested on: 786-0 renal
# [50] = tested on: CCRF-CEM leukemia
# [51] = tested on: HCT-116 colon
# [52] = tested on: SF-539 CNS
# [53] = tested on: HL-60(TB) leukemia
# [54] = tested on: A549 NSCLC
# [55] = tested on: NCI/ADR-RES ovarian
smiles,measurement,setting,value
C/C(=N\NC(=O)c1cccc(S(=O)(=O)N2CCN(C)CC2)c1)c1cc(Cl)ccc1O,GI50,[1],236 nM
same,TGI,[1],594 nM
same,GI50,[2],250 nM
same,TGI,[2],1310 nM
same,GI50,[3],521 nM
same,TGI,[3],3980 nM
same,GI50,[4],472 nM
same,TGI,[4],10200 nM
same,GI50,[5],62 nM
same,TGI,[5],441 nM
same,GI50,[6],2620 nM
same,TGI,[6],13800 nM
same,GI50,[7],351 nM
same,TGI,[7],4190 nM
same,GI50,[8],657 nM
same,TGI,[8],9270 nM
same,GI50,[9],1060 nM
same,TGI,[9],6020 nM
same,GI50,[10],54.5 nM
same,TGI,[10],15000 nM
same,GI50,[11],43 nM
same,TGI,[11],557 nM
same,GI50,[12],114 nM
same,TGI,[12],240 nM
same,GI50,[13],534 nM
same,TGI,[13],11600 nM
same,GI50,[14],1640 nM
same,TGI,[14],19000 nM
same,GI50,[15],641 nM
same,TGI,[15],8520 nM
same,GI50,[16],422 nM
same,TGI,[16],57200 nM
same,GI50,[17],477 nM
same,TGI,[17],1950 nM
same,GI50,[18],339 nM
same,TGI,[18],2750 nM
same,GI50,[19],544 nM
same,TGI,[19],2860 nM
same,GI50,[20],489 nM
same,TGI,[20],8090 nM
same,GI50,[21],134 nM
same,TGI,[21],14300 nM
same,GI50,[22],439 nM
same,TGI,[22],13600 nM
same,GI50,[23],268 nM
same,TGI,[23],20100 nM
same,GI50,[24],236 nM
same,TGI,[24],590 nM
same,GI50,[25],177 nM
same,TGI,[25],382 nM
same,GI50,[26],201 nM
same,TGI,[26],29000 nM
same,GI50,[27],141 nM
same,TGI,[27],2150 nM
same,GI50,[28],594 nM
same,TGI,[28],8010 nM
same,GI50,[29],642 nM
same,TGI,[29],19800 nM
same,GI50,[30],471 nM
same,TGI,[30],12000 nM
same,GI50,[31],455 nM
same,TGI,[31],35300 nM
same,GI50,[32],541 nM
same,TGI,[32],14700 nM
same,GI50,[33],301 nM
same,TGI,[33],12900 nM
same,GI50,[34],231 nM
same,TGI,[34],32000 nM
same,GI50,[35],627 nM
same,TGI,[35],13400 nM
same,GI50,[36],573 nM
same,TGI,[36],6820 nM
same,GI50,[37],247 nM
same,TGI,[37],1990 nM
same,GI50,[38],557 nM
same,TGI,[38],74200 nM
same,GI50,[39],478 nM
same,TGI,[39],8250 nM
same,GI50,[40],735 nM
same,TGI,[40],3360 nM
same,GI50,[41],567 nM
same,TGI,[41],3580 nM
same,GI50,[42],339 nM
same,TGI,[42],1180 nM
same,GI50,[43],1160 nM
same,TGI,[43],17400 nM
same,GI50,[44],142 nM
same,TGI,[44],898 nM
same,GI50,[45],523 nM
same,TGI,[45],3450 nM
same,GI50,[46],144 nM
same,TGI,[46],287 nM
same,GI50,[47],644 nM
same,TGI,[47],2030 nM
same,GI50,[48],296 nM
same,TGI,[48],1210 nM
same,GI50,[49],345 nM
same,TGI,[49],2210 nM
same,GI50,[50],216 nM
same,TGI,[50],1070 nM
same,GI50,[51],425 nM
same,TGI,[51],2020 nM
same,GI50,[52],442 nM
same,TGI,[52],3310 nM
same,GI50,[53],442 nM
same,TGI,[53],1220 nM
same,GI50,[54],447 nM
same,TGI,[54],> 100000 nM
same,GI50,[55],777 nM
same,TGI,[55],2360 nM
